US4438031A, “N-(Alkylsulfonyl)-L-proline amide and N-(alkylsulfonyl)-2-carboxylic acid amide-indoline derivatives” (American Home Products Corporation, priority 1982, dated 1984)
Counter-ions that a name gives are not always drawn.

How the values were obtained:
[1] = oral administration; cited from earlier work
[2] = molecular target: T1, angiotensin converting enzyme (Oryctolagus cuniculus, UniProt P12822); test: in vitro angiotensin converting enzyme (ACE) inhibition, rabbit lung extract, substrate hippuryl-L-histidyl-L-leucine (Cushman et al.); format: biochemical
T1 construct: The in vitro assay utilizes rabbit lung extract; from tissue; host or cells: rabbit lung extract
T1 sequence (P12822 34-1310): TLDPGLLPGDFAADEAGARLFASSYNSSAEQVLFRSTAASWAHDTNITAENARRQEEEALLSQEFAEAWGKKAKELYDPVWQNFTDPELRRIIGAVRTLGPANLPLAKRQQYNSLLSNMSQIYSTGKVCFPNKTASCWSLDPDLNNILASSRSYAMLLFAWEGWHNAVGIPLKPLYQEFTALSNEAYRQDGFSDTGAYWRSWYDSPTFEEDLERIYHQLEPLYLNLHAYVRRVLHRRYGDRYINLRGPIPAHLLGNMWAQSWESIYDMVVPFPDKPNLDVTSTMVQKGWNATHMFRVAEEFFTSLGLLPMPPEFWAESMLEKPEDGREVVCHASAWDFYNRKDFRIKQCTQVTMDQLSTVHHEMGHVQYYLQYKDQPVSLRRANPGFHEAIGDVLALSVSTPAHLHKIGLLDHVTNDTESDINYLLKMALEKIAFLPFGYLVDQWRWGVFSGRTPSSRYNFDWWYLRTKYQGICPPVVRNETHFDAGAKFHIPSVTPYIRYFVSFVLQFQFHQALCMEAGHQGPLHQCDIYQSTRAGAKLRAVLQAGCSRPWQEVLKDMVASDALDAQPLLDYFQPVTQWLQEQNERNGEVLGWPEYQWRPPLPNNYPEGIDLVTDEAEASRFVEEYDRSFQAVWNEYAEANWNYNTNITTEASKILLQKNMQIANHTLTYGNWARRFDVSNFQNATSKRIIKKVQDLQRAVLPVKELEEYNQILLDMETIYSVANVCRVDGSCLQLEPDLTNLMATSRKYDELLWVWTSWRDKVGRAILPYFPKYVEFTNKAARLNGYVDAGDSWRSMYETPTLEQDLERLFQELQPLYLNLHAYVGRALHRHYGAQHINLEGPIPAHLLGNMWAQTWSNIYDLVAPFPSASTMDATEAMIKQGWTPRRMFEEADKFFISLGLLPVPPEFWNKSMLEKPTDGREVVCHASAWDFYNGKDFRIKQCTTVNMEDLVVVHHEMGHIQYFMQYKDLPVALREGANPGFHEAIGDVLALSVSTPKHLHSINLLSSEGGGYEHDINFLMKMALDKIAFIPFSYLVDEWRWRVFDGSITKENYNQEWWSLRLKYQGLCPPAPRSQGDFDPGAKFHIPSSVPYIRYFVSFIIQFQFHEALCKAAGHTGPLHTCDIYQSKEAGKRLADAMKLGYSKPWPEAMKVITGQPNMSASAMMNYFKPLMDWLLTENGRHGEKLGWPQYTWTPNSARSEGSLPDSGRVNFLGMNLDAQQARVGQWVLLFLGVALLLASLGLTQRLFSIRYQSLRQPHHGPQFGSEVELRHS
Procedure: The angiotensin converting enzyme (ACE) inhibitory property of the compounds is measured in vitro and in vivo. The in vitro assay utilizes rabbit lung extract and a specific tripeptide substrate, hippuryl-L-histidyl-L-leucine being preferred, and follows the method of Cushman et al., Biochem. Pharmacol, 20, 1637-1648 (1971).

[3] = humans with certain forms of hypertension; cited from earlier work

## C[C@H](CS)C(=O)N1CCCC1C(=O)O (stereo in doubt) [D-3-mercapto-2-methylpropanoyl-L-proline]
[1]
  oral activity as an anti-hypertensive agent: effective when administered orally

## C[C@H](CSC(=O)c1ccccc1)C(=O)N1CCC[C@H]1C(=O)NS(C)(=O)=O [Example 1, Benzenecarbothioic Acid S-[(2S)-2-Methyl-3-[(2S)-2-[(Methylsulfonylamino)Carbonyl]-1-Pyrrolidinyl]-3-Oxopropyl]Ester, Dicyclohexylamine Salt]
[2]; concentration 100 ng/ml
  inhibition at 0.1 µg/mL: 35 to 38%
[2]; concentration 100 ng/ml, listed as Example 2
  inhibition of angiotensin converting enzyme: 35-38%
[2]; concentration 1000 ng/ml
  inhibition at 1 µg/mL: 80%

## C[C@H](CSC(=O)c1ccccc1)C(=O)N1CCC[C@H]1C(=O)NS(C)(=O)=O [Example 3, Benzenecarbothioic Acid S-[(2S)-2-Methyl-3-[(2S)-2-[(Methylsulfonylamino)Carbonyl]-1-Pyrrolidinyl]-3-Oxopropyl]Ester]
[2]; concentration 50 ng/ml
  inhibition at 0.05 µg/mL: 14 to 21%
[2]; concentration 100 ng/ml
  inhibition of angiotensin converting enzyme: 31-37%
[2]; concentration 1000 ng/ml
  inhibition of angiotensin converting enzyme: 76-80%

## C[C@H](CS)C(=O)N1CCC[C@H]1C(=O)NS(C)(=O)=O [Example 4, (S)-1-[(2S)-3-Mercapto-2-Methyl-1-Oxopropyl]-N-(Methylsulfonyl)-2-Pyrrolidinecarboxamide]
[2]; concentration 50 ng/ml
  inhibition at 0.05 µg/mL: 32%
  inhibition of angiotensin converting enzyme: 50-57%
[2]; concentration 1000 ng/ml
  inhibition at 1 µg/mL: 89 to 92%

## Pyr-Trp-Pro-Arg-Pro-Gln-Ile-Pro-Pro (WPRPQIPP; N-terminal pyroglutamyl; printed: Trp-Pro-Arg-Pro-Gln-Ile-Pro-Pro) [BPP9a]
[3]
  anti-hypertensive effect in clinical studies: effective anti-hypertensive agent
[1]
  oral activity as an anti-hypertensive agent: not orally active
